# From ChEMBL document CHEMBL6134865, “Rational Design of Methylene Blue-Raloxifene Conjugates for Efficient Breast Tumor Elimination Triggered by ERα Degradation” (J Med Chem, 2025)
# The source made the active and inactive calls. The rule behind the calls is not given here.
# Tests used:
# [1] = Induction of ROS generation in water assessed as decrease in ABDA absorption peak at 5 uM irradiated with 660 nm 0.4 W/cm2 light up to 5 mins by ABDA probe based UV-vis absorption spectra analysis; format: functional
# [2] = Photothermal effect of compound in water assessed as increase in temperature of solution at 1 uM incubated for 5 mins in presence of presence of 660 nm 0.2 to 1.5 W/cm2 light; format: functional
# [3] = Cytotoxicity against human MCF-10A cells assessed as inhibition of cell proliferation incubated for 48 hrs in absence of light irradiation by MTT assay; format: toxicity, cell-based
# [4] = tested on: MCF7; assay: Induction of ROS generation in human MCF7 cells assessed as cell percentage with elevated ROS at 1 uM incubated for 6 hrs by DCFH-DA probe based flow cytometric analysis (reference value: 0.2 %); format: functional
# [5] = tested on: MCF7; assay: Induction of ROS generation in human MCF7 cells assessed as cell percentage with elevated ROS at 1 uM incubated for 6 hrs followed by irradiation with 660 nm 0.4 W/cm2 light for 3 min by DCFH-DA probe based flow cytometric analysis (reference value: 0.2 %); format: functional; settings: time 363 min, 6.05 h
# [6] = tested on: MCF7; assay: Induction of ROS generation in human MCF7 cells assessed as cell percentage with elevated ROS at 1 uM incubated for 6 hrs followed by irradiation with 660 nm 0.4 W/cm2 light for 4 min by DCFH-DA probe based flow cytometric analysis (reference value: 0.2 %); format: functional; settings: time 364 min, 6.067 h
# [7] = tested on: MCF7; assay: Induction of ROS generation in human MCF7 cells assessed as cell percentage with elevated ROS incubated for 6 hrs followed by irradiation with 660 nm 0.4 W/cm2 light for 5 min by DCFH-DA probe based flow cytometric analysis; format: functional; settings: dose 0.1-5 µM, time 365.0 min
# [8] = Drug uptake in human MCF7 cell cytoplasm assessed as increase in red fluorescence at 1 uM incubated for 6 hrs by fluorescence imaging analysis; format: ADME, subcellular; settings: mcf7, 6 h
# [9] = Drug uptake in human MCF7 cell nucleus assessed as increase in red fluorescence at 1 uM incubated for 6 hrs by fluorescence imaging analysis; format: ADME, subcellular; settings: mcf7, 6 h
# [10] = tested on: MCF7; assay: Photothermal effect in human MCF7 cells assessed as temperature of cell culture medium at 1 uM irradiated with 660 nm 0.4 W/cm2 light for 2 min (reference value: 26 degreeC); format: ADME, cell-based; settings: mcf7, 2 min
# [11] = tested on: MCF7; assay: Photothermal effect in human MCF7 cells assessed as temperature of cell culture medium at 1 uM irradiated with 660 nm 0.4 W/cm2 light for 4 min (reference value: 26 degreeC); format: ADME, cell-based; settings: mcf7, 4 min
# [12] = tested on: MCF7; assay: Antitumor activity against human MCF7 cells xenografted in female BALB/c mouse model assessed as tumor growth inhibition at 5 mg/kg, iv measured after 14 days with 660 nm 0.4 W/cm2 light irradiation for 5 mins at 4 hrs of incubation time relative to control; format: functional; settings: MCF7, light or radiation study, 336 h, time 14 day, read-out: TGI
# [13] = tested on: MCF7; assay: Antitumor activity against human MCF7 cells xenografted in female BALB/c mouse model assessed as reduction in tumor weight at 5 mg/kg, iv measured after 14 days with 660 nm 0.4 W/cm2 light irradiation for 5 mins at 4 hrs of incubation time; format: functional, organism-based; settings: time 14.0 day
# [14] = tested on: MCF7; assay: Antitumor activity against human MCF7 cells xenografted in female BALB/c mouse model assessed as damage in tumor tissue at 5 mg/kg, iv measured after 14 days with 660 nm 0.4 W/cm2 light irradiation for 5 mins at 4 hrs of incubation time by H and E staining based analysis; format: functional, organism-based; settings: time 14.0 day
# [15] = tested on: Mus musculus; assay: In vivo induction of ERalpha degradation in female BALB/c mouse xenografted with human MCF7 cells assessed as decrease in ERalpha level in tumor at 5 mg/kg, iv measured after 14 days with 660 nm 0.4 W/cm2 light irradiation for 5 mins at 4 hrs of incubation time by DAPI staining based immunofluorescence analysis; format: functional, organism-based; settings: time 14.0 day
# [16] = Toxicity in female BALB/c mouse xenografted with human MCF7 cells assessed as change in body weight at 5 mg/kg, iv measured after 14 days; format: organism-based; settings: in vivo, 336 h, time 14 day
# [17] = Toxicity in female BALB/c mouse xenografted with human MCF7 cells assessed as change in platelet level at 5 mg/kg, iv measured after 14 days; format: organism-based; settings: in vivo, 336 h, time 14 day
# [18] = Toxicity in female BALB/c mouse xenografted with human MCF7 cells assessed as change in ALT level at 5 mg/kg, iv measured after 14 days; format: organism-based; settings: in vivo, 336 h, time 14 day
# [19] = Toxicity in female BALB/c mouse xenografted with human MCF7 cells assessed as change in blood urea nitrogen level at 5 mg/kg, iv measured after 14 days; format: organism-based; settings: in vivo, 336 h, time 14 day
# [20] = Toxicity in female BALB/c mouse xenografted with human MCF7 cells assessed as change in creatinine level at 5 mg/kg, iv measured after 14 days; format: organism-based; settings: in vivo, 336 h, time 14 day
# [21] = Toxicity in female BALB/c mouse xenografted with human MCF7 cells assessed as change in AST level at 5 mg/kg, iv measured after 14 days with 660 nm 0.4 W/cm2 light irradiation for 5 mins at 4 hrs of incubation time; format: organism-based; settings: in vivo, 336 h, time 14 day
# [22] = Toxicity in female BALB/c mouse xenografted with human MCF7 cells assessed as change in blood urea nitrogen level at 5 mg/kg, iv measured after 14 days with 660 nm 0.4 W/cm2 light irradiation for 5 mins at 4 hrs of incubation time; format: organism-based; settings: in vivo, 336 h, time 14 day
# [23] = Toxicity in female BALB/c mouse xenografted with human MCF7 cells assessed as change in creatinine level at 5 mg/kg, iv measured after 14 days with 660 nm 0.4 W/cm2 light irradiation for 5 mins at 4 hrs of incubation time; format: organism-based; settings: in vivo, 336 h, time 14 day
# [24] = Toxicity in female BALB/c mouse xenografted with human MCF7 cells assessed as effect on heart histology at 5 mg/kg, iv measured after 14 days by H and E staining based analysis; format: organism-based; settings: in vivo, 336 h, time 14 day
# [25] = Toxicity in female BALB/c mouse xenografted with human MCF7 cells assessed as effect on lung histology at 5 mg/kg, iv measured after 14 days by H and E staining based analysis; format: organism-based; settings: in vivo, 336 h, time 14 day
# [26] = Toxicity in female BALB/c mouse xenografted with human MCF7 cells assessed as effect on liver histology at 5 mg/kg, iv measured after 14 days by H and E staining based analysis; format: organism-based; settings: in vivo, 336 h, time 14 day
# [27] = Toxicity in female BALB/c mouse xenografted with human MCF7 cells assessed as effect on spleen histology at 5 mg/kg, iv measured after 14 days by H and E staining based analysis; format: organism-based; settings: in vivo, 336 h, time 14 day
# [28] = Toxicity in female BALB/c mouse xenografted with human MCF7 cells assessed as effect on kidney histology at 5 mg/kg, iv measured after 14 days by H and E staining based analysis; format: organism-based; settings: in vivo, 336 h, time 14 day
# [29] = tested on: MCF7; assay: cells; settings: Homo sapiens, MCF7, light or radiation study
# Description: Antiproliferative activity against human MCF7 cells assessed as inhibition of cell proliferation incubated for 48 hrs with 660 nm 0.4 W/cm2 light irradiation for 2 min at 6th hr of incubation time by MTT assay
# [30] = in vivo; settings: Sprague-Dawley, rat, iv, 5 mg/kg
# Description: Cmax in Sprague-Dawley rat at 5 mg/kg, iv measured after 0.5 to 168 hrs by LC-MS analysis
# [31] = in vivo; settings: Sprague-Dawley, rat, iv, 5 mg/kg; remark: listed apart in the source
# Description: AUC (0 to infinity) in Sprague-Dawley rat at 5 mg/kg, iv measured after 0.5 to 168 hrs by LC-MS analysis
# [32] = in vivo; settings: Sprague-Dawley, rat, po, 15 mg/kg
# Description: Tmax in Sprague-Dawley rat at 15 mg/kg, po administered via gavage and measured after 0.5 to 168 hrs by LC-MS analysis
# [33] = in vivo; settings: Sprague-Dawley, rat, po, 15 mg/kg; remark: listed apart in the source
# Description: Cmax in Sprague-Dawley rat at 15 mg/kg, po administered via gavage and measured after 0.5 to 168 hrs by LC-MS analysis
structure (smiles),measurement,setting,value
CCN(CC)c1ccc2nc3c4ccccc4/c(=N\CCCCCCC(=O)NCCOc4ccc(C(=O)c5c(-c6ccc(O)cc6)sc6cc(O)ccc56)cc4)cc-3sc2c1,Activity,[1],Active
same,Activity,[2],Active
same,IC50 at 48 h,[3],> 100000 nM
same,Activity,[4],0.7%
same,Activity,[5],15%
same,Activity,[6],47.8%
same,Activity,[7],Dose-dependent-effect
same,Drug uptake,[8],Active
same,Drug uptake,[9],Active
same,T,[10],28.4 °C
same,T,[11],30.9 °C
same,inhibition in vivo at 5 mg/kg,[12],118%
same,Activity,[13],Active; Significant Performance Than Faslodex Observed
same,Activity,[14],Active
same,Activity,[15],Active; Superior To That Of Faslodex
same,Activity,[16],Non-toxic
same,Activity,[17],Non-toxic
same,Activity,[18],Non-toxic
same,Activity,[19],Non-toxic
same,Activity,[20],Non-toxic
same,Activity,[21],Non-toxic
same,Activity,[22],Non-toxic
same,Activity,[23],Non-toxic
same,Activity,[24],Non-toxic
same,Activity,[25],Non-toxic
same,Activity,[26],Non-toxic
same,Activity,[27],Non-toxic
same,Activity,[28],Non-toxic
same,IC50,[29],290 nM
same,Cmax,[30],30.2 ng/mL
same,AUC(0-inf),[31],279 ng·h/mL
same,Tmax,[32],6 h
same,Cmax,[33],17.5 ng/mL
